Assay results as given in patent US9339034B2, “Use of thaxtomin for selective control of rice and aquatic based weeds” (MARRONE BIO INNOVATIONS, INC., priority 2009, dated 2016).

Columns and labels:
Ammania sp = assay: Pot study, spray of pure thaxtomin A solutions, % control; type: in vivo, redstem; Ammannia spp.
Experimental: (§1) A pot study was conducted to test the phytotoxicity of thaxtomin A on broadleaved, sedge and grass weeds. Seeds of two most common broadleaf (redstem; Ammannia spp. and common waterplantain; Alisma plantago-aquatica), sedge (smallflower umbrella sedge; Cyperus diiformis) and grass (sprangletop: Leptochloa uninervia) weeds each were planted in a plastic pots filled with heavy clay soil. The less than 1-inch tall plants grown under growth lights (12-h light/12-h dark) at 28° C. were sprayed with pure thaxtomin A solutions containing 0.05, 0.1, 0.2, and 0.4 mg thaxtomin A per mL of solvent (4% ethanol and 0.2% non-ionic surfactant). A solution of 4% ethanol+0.2% non-ionic surfactant without thaxtomin A was used as a control treatment. Same treatments were applied to three-inch tall rice plants grown submerged under growth lights at 28° C. […] All treatments were applied in three replicates. Treated plants were kept at 28° C. under growth lights and observed at three time points—5, 12 and 21 days after treatment—for visual symptoms of phytotoxicity and % control.

LEF = assay: Greenhouse pot study, weed control; type: in vivo
DSR (direct-seeded rice) = assay: Greenhouse pot study, effect on crop growth, direct-seeded rice; type: in vivo
Alisma plantago-aquatica = assay: Pot study, spray of pure thaxtomin A solutions, % control; type: in vivo, common waterplantain; Alisma plantago-aquatica; details: for % control: Alisma plantago-aquatica
Experimental: as §1

AMM = assay: Greenhouse pot study, weed control; type: in vivo, Ammania spp.
Excerpt: Moderate suppression (60%) was noted on Echinochloa colonum at 500 g a.i. per hectare.

Leptochloa sp = assay: Pot study, spray of pure thaxtomin A solutions, % control; type: in vivo, sprangletop: Leptochloa uninervia
Experimental: as §1

[1] = 5 DAYS, 0.05 mg/mL in 4% ethanol
[2] = 5 DAYS, 0.1 mg/mL in 4% ethanol
[3] = 5 DAYS, 0.2 mg/mL in 4% ethanol
[4] = 5 DAYS, 0.4 mg/mL in 4% ethanol
[5] = 12 DAYS, 0.05 mg/mL in 4% ethanol
[6] = 12 DAYS, 0.1 mg/mL in 4% ethanol
[7] = 12 DAYS, 0.2 mg/mL in 4% ethanol
[8] = 12 DAYS, 0.4 mg/mL in 4% ethanol
[9] = 21 DAYS, 0.05 mg/mL in 4% ethanol
[10] = 21 DAYS, 0.1 mg/mL in 4% ethanol
[11] = 21 DAYS, 0.2 mg/mL in 4% ethanol

For `CN1C(=O)[C@](O)(Cc2cccc(O)c2)N(C)C(=O)[C@@H]1Cc1c[nH]c2cccc([N+](=O)[O-])c12` [thaxtomin A], the “% control” value (Ammania sp; Ammania sp, 5 DAYS, 0.05 mg/mL in 4% ethanol) was 0%, the “% control” value (Ammania sp; Ammania sp, 5 DAYS, 0.1 mg/mL in 4% ethanol) was 0% and the “% control” value (Ammania sp; Ammania sp, 5 DAYS, 0.2 mg/mL in 4% ethanol) was 0%. The “% control” value (Ammania sp; Ammania sp, 5 DAYS, 0.4 mg/mL in 4% ethanol) was 0%, the “% control” value (Ammania sp; Ammania sp, 12 DAYS, 0.05 mg/mL in 4% ethanol) was 0a % and the “% control” value (Ammania sp; Ammania sp, 12 DAYS, 0.1 mg/mL in 4% ethanol) was 0a %. The “% control” value (Ammania sp; Ammania sp, 12 DAYS, 0.2 mg/mL in 4% ethanol) was 0a %, the “% control” value (Ammania sp; Ammania sp, 12 DAYS, 0.4 mg/mL in 4% ethanol) was 3b % and the “% control” value (Ammania sp; Ammania sp, 21 DAYS, 0.05 mg/mL in 4% ethanol) was 63b %. The “% control” value (Ammania sp; Ammania sp, 21 DAYS, 0.1 mg/mL in 4% ethanol) was 53b %, the “% control” value (Ammania sp; Ammania sp, 21 DAYS, 0.2 mg/mL in 4% ethanol) was 70b % and the “% control” value (Ammania sp; Ammania sp, 21 DAYS, 0.4 mg/mL in 4% ethanol) was 75b %. For the same molecule, the “% control” value (Ammania sp; red stem (Ammania sp.), highest concentration (0.4 mg/mL)) was 75-80%, the “% control” value (LEF; 64 g/ha) was 0% and the “% control” value (LEF; 125 g/ha) was 50%. For the same molecule, the “% control” value (LEF; 250 g/ha) was 60%, the “% control” value (LEF; 500 g/ha) was 70% and the “% control” value (LEF; 1000 g/ha) was 100%. For the same molecule, the “effect on crop growth (rice)” value (DSR (direct-seeded rice); 64 g/ha) was 10%, the “effect on crop growth (rice)” value (DSR (direct-seeded rice); 125 g/ha) was 10% and the “effect on crop growth (rice)” value (DSR (direct-seeded rice); 250 g/ha) was 10%. The “effect on crop growth (rice)” value (DSR (direct-seeded rice); 500 g/ha) was 15%, the “effect on crop growth (rice)” value (DSR (direct-seeded rice); 1000 g/ha) was 40% and the “control of common water plantain” value (Alisma plantago-aquatica; 0.2 mg/ml) was “complete control”. The “% control” value (Alisma plantago-aquatica; [1]) was 8a %, the “% control” value (Alisma plantago-aquatica; [2]) was 28ab % and the “% control” value (Alisma plantago-aquatica; [3]) was 40b %. The “% control” value (Alisma plantago-aquatica; [4]) was 62b %, the “% control” value (Alisma plantago-aquatica; [5]) was 40b % and the “% control” value (Alisma plantago-aquatica; [6]) was 43b %. The “% control” value (Alisma plantago-aquatica; [7]) was 87c %, the “% control” value (Alisma plantago-aquatica; [8]) was 87c % and the “% control” value (Alisma plantago-aquatica; [9]) was 83b %. For the same molecule, the “% control” value (Alisma plantago-aquatica; [10]) was 70b %, the “% control” value (Alisma plantago-aquatica; [11]) was 100c % and the “% control” value (Alisma plantago-aquatica; 21 DAYS, 0.4 mg/mL in 4% ethanol) was 98c %. For the same molecule, the “% control” value (AMM; 64 g/ha) was 0%, the “% control” value (AMM; 125 g/ha) was 30% and the “% control” value (AMM; 250 g/ha) was 90%. For the same molecule, the “% control” value (AMM; 500 g/ha) was 100%, the “% control” value (AMM; 1000 g/ha) was 100% and the “% control” value (Leptochloa sp; [1]) was 0%. The “% control” value (Leptochloa sp; [2]) was 0%, the “% control” value (Leptochloa sp; [3]) was 0% and the “% control” value (Leptochloa sp; [4]) was 0%. The “% control” value (Leptochloa sp; [5]) was 0a %, the “% control” value (Leptochloa sp; [6]) was 2a % and the “% control” value (Leptochloa sp; [7]) was 10b %. For the same molecule, the “% control” value (Leptochloa sp; [8]) was 10b %, the “% control” value (Leptochloa sp; [9]) was 0a % and the “% control” value (Leptochloa sp; [10]) was 3a %. The “% control” value (Leptochloa sp; [11]) was 12a %, the “% control” value (Leptochloa sp; 21 DAYS, 0.4 mg/mL in 4% ethanol, listed as Thaxtomin) was 17a % and the “% control” value (Leptochloa sp; 21 DAYS, 0.4 mg/mL in 4% ethanol, listed as Thaxtomin A) was 17%.
